Experimental data: patent US10406218B2 (priority 2014, dated 2019)
Read-outs that look alike come from different tables or passages of the source.

Legend:
Type in all cases: cell-based, human
[1] = system: IL-10 production by cells of HC donors; conditions: for IL-10 SFC: HC donors; for # resp IL-10: number of responding HC donors out of # tested (5 or 6)
[2] = system: IFNγ production by cells of HC donors; experiment: IFNγ production (SFC) in HC donors in response to broadly conserved peptides; conditions: for IFNg SFC: HC donors; for # resp IFNg: number of responding HC donors out of # tested (5 or 6)
Method: To test this hypothesis, the HLA binding capacity of the 4241 broadly conserved peptides for common HLA class II alleles was predicted. Next peptides were selected predicted to bind with high affinity to alleles expressed in representative HC donors were tested for IL-10 production. Several frequently recognized IL-10 producing peptides could be identified (FIG. 13A), none of which produced a significant amount of IFNγ (FIG. 13B).

[3] = system: T cells of LTBI and HC donors; experiment: antigen reactivity in LTBI vs HC donors (LTBI-specific or crossreactive); conditions: response frequency and magnitude in LTBI vs HC donors, FIG. 10
Description: The data herein implies that preexisting immunity and occasional boosting might be provided by exposure to NTMs, in a low MTB-complex exposure population such as the one from the general San Diego area. This might be viewed as desirable, or alternatively contributing an undesired confounding factor in evaluation of vaccination strategies. Regardless, whether or not preexisting, non-TB-complex related reactivity is present in the general population is an important issue has implication for the development of vaccination strategies. To further investigate this issue, epitope reactivity data (Lindestamm-Arlehamn et al, 2012) was mapped back to the specific antigens from which the epitopes were derived. Antigens recognized by 2 or more donors were further categorized as LTBI-specific or crossreactive according to the following criteria; antigens were categorized as LTBI-specific if there was a lack of reactivity in HC individuals, or if the ratio between response frequency and total SFC for LTBI/HC were >4. All other antigens were categorized as crossreactive.

CD4+ memory T cells = system: CD4+ memory T cells
[4] = system: PBMC from 30 HC individuals; experiment: ex vivo IFNγ ELISPOT with NTM-specific peptides
[5] = response frequency among HC donors, NTM-specific peptides (Table 2)
[6] = total spot forming cells, IFNγ ELISPOT, NTM-specific peptides (Table 2)

Substance | IL-10 SFC [1] [SFC] | # resp IL-10 [1] | IFNg SFC [2] [SFC] | # resp IFNg [2] | Resp Freq [4, 5] [%] | Total SFC [4, 6] [SFC] | also measured
IGQFGIGFYSSFMVA [Peptide 3580.0012] | 468 | 3 | 10 | 0 | – | – | –
ASGLIFGWLAFLLVF [Peptide 3580.0018] | 652 | 4 | 20 | 0 | – | – | –
ASCKYMKMITPAALL [Peptide 3580.0015] | 730 | 4 | 32 | 0 | – | – | –
Rv3804c: MTB antigen currently included in TB vaccines in clinical development | – | – | – | – | – | – | antigen reactivity category (LTBI-specific or crossreactive) [3]: widely cross-reactive
LSSTEFELLRFLMRN [Peptide 3580.0020] | 1017 | 5 | 33 | 0 | – | – | –
ASVSKQFTATAILLL [Peptide 3580.0013] | 918 | 4 | 23 | 0 | – | – | –
FAIMFEALFILTTVD [Peptide 3580.0006] | 915 | 5 | 32 | 0 | – | – | –
QAAVVRFQEAANKQK [CFP1052-66] | – | – | – | – | – | – | epitope-specific cells in CD4+ naive subset or CD4+ memory subset of control donors (CD4+ memory T cells): No epitope-specific cells were detected; frequency of epitope-specific CD4+ memory T cells, median (CD4+ memory T cells; 5 LTBI donors, median (interquartile range 0.03-0.33)): 0.09
FTGKPEFVENFFMFI [Peptide 3580.0004] | 622 | 3 | 27 | 0 | – | – | –
LPFFSFMTYLIAVPT [Peptide 3580.0007] | 505 | 4 | 22 | 0 | – | – | –
ESFLFYSGFYLPMYW [Peptide 3580.0002] | 570 | 4 | 8 | 0 | – | – | –
YVLFLFTQTVRHRDF [Peptide 3580.0014] | 975 | 4 | 53 | 0 | – | – | –
MVAFMVRYTSGYLCV [Peptide 3580.0017] | 1058 | 4 | 8 | 0 | – | – | –
ATFAGIYFWFPKMTG [Peptide 3580.0008] | 1328 | 6 | 28 | 0 | – | – | –
GRFIALLRIFAGPLA [Peptide 3580.0011] | 1480 | 5 | 52 | 0 | – | – | –
DRIAQLLVQRVELVE [Peptide 3580.0009] | 1018 | 5 | 50 | 0 | – | – | –
88 (ALVLVSLLTALAAGI) [Peptide 88] | – | – | – | – | 3 | 28 | –
531 (LDSFQLFPNFVILFW) [Peptide 531] | – | – | – | – | 3 | 28 | –
FVTYWSFRMMIGLMA [Peptide 3580.0003] | 563 | 4 | 10 | 0 | – | – | –
1255 (GNELWQIALLELWLQ) [Peptide 1255] | – | – | – | – | 3 | 37 | –
1350 (LFFLFPLYAMADFST) [Peptide 1350] | – | – | – | – | 3 | 30 | –
QWGYRMVLPQLILMP [Peptide 868] | – | – | – | – | 3 | 58 | Resp Freq [4]: 3%; Total SFC [4]: 58 SFC
RELIRAFWPGALSLV [Peptide 3580.0019] | 422 | 3 | 27 | 0 | – | – | –

Substance | IL-10 SFC [1] [SFC] | # resp IL-10 [1] | IFNg SFC [2] [SFC] | # resp IFNg [2] | Resp Freq [4, 5] [%] | Total SFC [4, 6] [SFC] | also measured
RLFPVIRRYALAYHV [Peptide 582] | – | – | – | – | 10 | 158 | Resp Freq [4]: 10%; Total SFC [4]: 158 SFC
SQRLVTLSYRLDAAA [Peptide 1471] | – | – | – | – | 7 | 58 | Resp Freq [4]: 7%; Total SFC [4]: 58 SFC
1474 (MFETMAAFMLVEHAN) [Peptide 1474] | – | – | – | – | 3 | 23 | –
658 (VRRVLPALMNQFISL) [Peptide 658] | – | – | – | – | 3 | 32 | –
LAMFAIIFFWTPPHT [Peptide 3580.0016] | 1142 | 5 | 27 | 0 | – | – | –
1196 (MVWRAAAAIELGICD) [Peptide 1196] | – | – | – | – | 3 | 35 | –
AKSVLIFLGIPLLAG [Peptide 3580.0010] | 892 | 4 | 35 | 0 | – | – | –
1368 (TMMLSLVWPIASLGF) [Peptide 1368] | – | – | – | – | 3 | 40 | –
865 (TPLFMAHYAPFGLLT) [Peptide 865] | – | – | – | – | 3 | 25 | –
588 (HLFQVMAFVVMEPPT) [Peptide 588] | – | – | – | – | 3 | 52 | –
AELTRVRQQVIQLLS [Peptide 3580.0001] | 733 | 4 | 27 | 0 | – | – | –
1218 (RTFFRYFPTKESVLF) [Peptide 1218] | – | – | – | – | 3 | 48 | –
1004 (ARQMLRFLSSPLWRA) [Peptide 1004] | – | – | – | – | 3 | 27 | –
1526 (VATVRAASSLVRAPL) [Peptide 1526] | – | – | – | – | 3 | 27 | –
586 (ELVWLGAAMIIGAGS) [Peptide 586] | – | – | – | – | 3 | 37 | –
438 (GSVLLVQALLVTSLL) [Peptide 438] | – | – | – | – | 3 | 25 | –
205 (TTSLAFLVAFRPGLV) [Peptide 205] | – | – | – | – | 3 | 45 | –
LGVAALLFGFPIFFD [Peptide 391] | – | – | – | – | 3 | 77 | Resp Freq [4]: 3%; Total SFC [4]: 77 SFC
387 (RGQFWIWAGANIAPI) [Peptide 387] | – | – | – | – | 3 | 47 | –
629 (VQFMPLVIAPQLLLC) [Peptide 629] | – | – | – | – | 3 | 37 | –
APFISEFLVLLGTFS [Peptide 3580.0005] | 585 | 3 | 15 | 0 | – | – | –
883 (EWFARILFSLFSTPS) [Peptide 883] | – | – | – | – | 3 | 28 | –
1571 (ADGLVLFNRFLQPDI) [Peptide 1571] | – | – | – | – | 3 | 48 | –
